Laboratory results taken from patent US4496551A (priority 1983, dated 1985).

Assays:
[1] = system: Puccinia recondita var. tritici; assay: wheat leaf rust control on wheat seedlings; assay type: in vivo; conditions: for pest or weed control at 100 ppm: sprayed day before inoculation
Outline: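 Compounds at 100 ppm (6% acetone, 250 ppm polyhydric alcohol ester surfactant in water) sprayed to run-off on wheat seedlings; inoculated next day with P. recondita spores. Kept 24 h at saturated humidity, 20°, then 7 days in growth room before rust pustule rating.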

[2] = system: Erysiphe cichoracearum; assay: cucumber powdery mildew control on cucumber seedlings; assay type: in vivo; conditions: Golovinomyces cichoracearum, 168 h, 7 days
Outline: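 Compounds at 100 ppm in water with 6% acetone and 250 ppm TREM 014 surfactant, sprayed to run-off on cucumber seedlings. Inoculation with Erysiphe cichoracearum spores the following day; disease rated after 7 days in a growth room against untreated plants.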

[3] = system: Venturia inaequalis; assay: apple scab control on apple seedlings; assay type: in vivo; conditions: Venturia inaequalis
Outline: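 Apple seedlings sprayed to run-off with 100 ppm compound suspension (6% acetone, 250 ppm TREM 014 surfactant). Inoculated next day with Venturia inaequalis spores; 24 hours at 20° in saturated humidity, then 10-12 days in growth room. Scab lesions compared with untreated plants.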

[4] = system: Helminthosporium maydis; assay: southern corn leaf blight control on corn seedlings; assay type: in vivo; conditions: Bipolaris maydis, 168 h
Outline: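 Corn seedlings were sprayed to run-off with 100 ppm compound (6% acetone, 250 ppm TREM 014), inoculated next day with H. maydis spores, then kept 24 h at 20° in saturated humidity and 7 more days in a growth room. Lesions were rated as disease score.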

[5] = system: Cercospora arachidicola; assay: peanut early leafspot control on peanut seedlings; assay type: in vivo; conditions: Mycosphaerella arachidis, 336 h
Outline: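 Compounds dissolved in acetone (6% of final volume) and suspended at 100 ppm in water with 250 ppm TREM 014, sprayed to run-off on seedlings. Cercospora arachidicola inoculated next day; 24 h saturated humidity at 27°, then 14 days growth room before disease and leafspot rating.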

[6] = system: Uromyces phaseoli; assay: bean rust control on bean seedlings; assay type: in vivo; conditions: 20 ppm
Method: Compounds of the previous examples were again dissolved in acetone in an amount equal to 6% of the final volume and then suspended at a concentration of 20 ppm in purified water containing 250 ppm of the surfactant TREM 014 (polyhydric alcohol esters). This suspension was sprayed to the point of run-off on bean seedlings. The following day, the plants were inoculated with a spore suspension of the fungus Uromyces phaseoli, causal agent of bean rust, and incubated in a saturated humidity chamber at 20° for 24 hours and then in a greenhouse for 7 days. Disease ratings were then made. Treated plants from successful treatments had few or no rust pustules in contrast to untreated plants which were covered with rust pustules.

[7] = system: Monilinia fructicola; assay: stone fruit brown rot colony growth inhibition on canned peach halves; assay type: cell-based; conditions: 120 h, dipped 3 minutes, five days, percent growth inhibition of colonies, read-out: % Control Brown Rot
Text: Several compounds of the previous examples were again dissolved in acetone in an amount equal to 5% of the final volume and then suspended at a concentration of 100 ppm in purified water containing 700 ppm of the surfactant TREM 014 (polyhydric alcohol esters). Canned peach halves were dipped in this suspension for three minutes and then placed to air dry in sterile containers. Upon drying, the peach halves were inoculated with two pieces of Monilinia fructicola, causal agent of stone fruit brown rot, mycelium and then incubated in the sterile containers for five days. At that time the radii of the colonies' growth were measured on each peach. […] Percent disease contol (percent growth inhibition of colonies on treated peaches as compared to that of colonies on untreated peaches) is expressed in the table below.

[8] = system: Rhizoctonia solani; assay: rice sheath blight control on rice seedlings; assay type: in vivo; conditions: Rhizoctonia solani, 168 h, 7 days
Outline: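 Rice seedlings sprayed to run-off with 100 ppm compound suspension (6% acetone, 250 ppm surfactant), then inoculated next day with bran/mycelium of Rhizoctonia solani. After 7 days in a growth room, sheath blight disease was rated.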

[9] = system: Pyricularia oryzae; assay: whole plant or invertebrate; assay type: in vivo; conditions: 168 h, read-out: % Control of Rice Blast
[10] = system: Phytophthora infestans; assay: whole plant or invertebrate; assay type: in vivo; conditions: Phytophthora infestans, in Solanum lycopersicum, 168 h, read-out: % Control of Tomato Late Blight
[11] = system: 5 Phytophthora species; assay type: cell-based; conditions: 200.0 ppm in agar, 22° C., 6 days; controlled = radial growth 1 mm or less
[12] = system: Pythium aphanadermatum; assay: Pythium control on coated cotton seeds; assay type: in vivo; conditions: 168 h, 2 gm/kg seed, 1 week
Text: Several compounds of the previous examples were incorporated into a proprietary formulation and used to coat cotton seeds at a rate of 2 gm/kg seed. After being thoroughly coated, the seeds were allowed to air dry at room temperature. The cotton seeds were then planted into soil amended with the fungus Pythium aphanadermatum, sand, and corn meal at a rate sufficient to kill most untreated seeds. The seeds were held at room temperature for 1 week, after which time disease ratings were made.

[13] = system: Pythium aphanadermatum; assay: Pythium control on coated corn seeds; assay type: in vivo; conditions: 504 h, 2 gm/kg seed, 49° F. 2 weeks then 70° F. 1 week
Method: Several compounds of the previous examples were incorporated into a proprietary formulation and used to coat corn seeds at a rate of 2 gm/kg seed. After being thoroughly coated, the seeds were allowed to air dry at room temperature. The seeds were then planted into soil amended with a mixture of the fungus Pythium aphanadermatum, sand, and corn meal at a rate sufficient to kill most untreated seeds. The seeds were held at 49° F. for 2 weeks and then at 70° F. for 1 additional week. After this time disease ratings were made.

[14] = system: cucumber seedlings; assay: phytotoxicity on cucumber seedlings; assay type: in vivo; set-up: key: G: growth reduction; H: hormonal effects; conditions: 100 ppm
[15] = system: peanut seedlings; assay: phytotoxicity on peanut seedlings; assay type: in vivo; set-up: key: B: Phytotoxic burn; conditions: 100 ppm
Method: Compounds of the previous examples were again dissolved in acetone in an amount equal to 6% of the final volume and then suspended at a concentration of 100 ppm in purified water containing 250 ppm of the surfactant TREM 014 (polyhydric alcohol esters). This suspension was sprayed to the point of run-off on peanut seedlings. The following day, the plants were inoculated with a spore suspension of Cercospora arachidicola, causal agent of peanut early leafspot, and incubated in a saturated humidity chamber at 27° for 24 hours and then in a growth room for an additional 14 days, when disease ratings were made. Treated plants from successful treatments had few or no leafspots while the untreated plants had numerous leafspots on each leaf.

[16] = system: Erysiphe graminis; assay: barley powdery mildew control on barley seedlings; assay type: in vivo; conditions: Blumeria graminis, 168 h; 100 ppm, 7 days
Method: Several compounds of the previous examples were again dissolved in acetone in an amount equal to 6% of the final volume and then suspended at a concentration of 100 ppm in purified water containing 250 ppm of the surfactant TREM 014 (polyhydric alcohol esters). This suspension was sprayed to the point of run-off on barley seedlings. The following day, the plants were inoculated with a spore suspension of the fungus Erysiphe graminis, causal agent of barley powdery mildew, and incubated in a growth room for 7 days. Disease ratings were then made. Treated plants had little or no powdery mildew in contrast to untreated plants which were covered with powdery mildew.

| SMILES | pest or weed control at 100 ppm [1] [%] | pest or weed control at 100 ppm [2] [%] | pest or weed control at 100 ppm [3] [%] | pest or weed control at 100 ppm [4] [%] | pest or weed control at 100 ppm [5] [%] | % Control Bean Rust [6] [%] | inhibition of growth at 100 ppm [7] [%] | pest or weed control at 100 ppm [8] [%] | pest or weed control at 100 ppm [9] [%] | pest or weed control at 100 ppm [10] [%] | No. of 5 Phytophthora species controlled in vitro [11] | pest or weed control at 2000 mg/kg [12] [%] | pest or weed control at 2000 mg/kg [13] [%] | Phytotoxicity (growth reduction or hormonal effects) [14] | Phytotoxic burn [15] | pest or weed control at 100 ppm [16] [%] | pest or weed control at 400 ppm ([1]; 400 ppm) [%] | pest or weed control at 400 ppm ([3]; 400 ppm) [%] |
| --- | --- | --- | --- | --- | --- | --- | --- | --- | --- | --- | --- | --- | --- | --- | --- | --- | --- | --- |
| C[Si](C)(Cn1ccnc1)c1ccc(-c2ccccc2)cc1 [(1,1'-Biphenyl-4-yl)dimethyl(1H-imidazol-1-ylmethyl)silane] | 100 | 100 | 80 | 90 | 100 | 100 | 83 | 0 | 0 | 50 | 3 | 18 | 32 |  |  |  |  |  |
| C[Si](C)(Cn1ccnc1)c1ccc(F)cc1 [Dimethyl(4-fluorophenyl)(1H-imidazol-1-ylmethyl)silane] | 80 | 100 | 0 | 0 | 60 |  |  | 0 | 0 | 0 |  | 0 | 15 | G | B |  |  |  |
| C[Si](C)(Cn1ccnc1)c1ccc(Cl)cc1Cl [(2,4-Dichlorophenyl)dimethyl(1H-imidazol-1-ylmethyl)silane] | 90 | 100 | 100 | 70 | 100 | 83 | 100 | 0 | 0 | 0 | 5 |  |  | H |  | 100 |  |  |
| C[Si](C)(Cn1ccnc1)c1ccc(C(F)(F)F)cc1 [Dimethyl(1H-imidazol-1-ylmethyl)(4-trifluoromethylphenyl)silane] |  | 100 |  |  | 36 |  |  |  |  |  |  |  |  |  | B | 100 | 100 | 60 |
